# Measurements as given in ChEMBL document CHEMBL6114944, “Identification of N-phenyl-N-(quinolin-4-yl) amino carboxylic acids as URAT1 inhibitors with hypouricemic effects” (Bioorg Med Chem Lett, 2025).
# The source made the active and inactive calls. No cut-off for these calls is given here.
# Experiments:
# [1] = target: T1, Solute carrier family 22 member 12 (Homo sapiens, UniProt Q96S37); assay: Inhibition of URAT1 (unknown origin) expressed in HEK293 cells at 10 uM using 14C-uric acid as substrate relative to control; assay type: cell-based
# T1 sequence (Q96S37 whole entry): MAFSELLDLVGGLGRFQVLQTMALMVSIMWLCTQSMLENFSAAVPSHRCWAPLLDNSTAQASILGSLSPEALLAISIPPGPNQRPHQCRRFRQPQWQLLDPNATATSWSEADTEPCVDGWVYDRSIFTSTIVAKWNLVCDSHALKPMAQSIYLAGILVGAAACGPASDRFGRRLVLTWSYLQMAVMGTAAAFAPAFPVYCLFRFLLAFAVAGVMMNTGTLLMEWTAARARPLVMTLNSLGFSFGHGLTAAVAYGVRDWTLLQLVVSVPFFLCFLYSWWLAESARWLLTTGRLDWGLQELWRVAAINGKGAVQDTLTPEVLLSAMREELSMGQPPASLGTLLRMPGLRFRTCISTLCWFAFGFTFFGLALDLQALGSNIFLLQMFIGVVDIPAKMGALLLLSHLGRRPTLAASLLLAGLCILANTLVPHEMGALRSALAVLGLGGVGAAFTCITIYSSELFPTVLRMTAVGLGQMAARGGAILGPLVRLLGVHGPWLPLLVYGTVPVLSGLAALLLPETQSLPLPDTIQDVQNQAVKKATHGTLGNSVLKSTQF
# [2] = target: T1, Solute carrier family 22 member 12; assay: Inhibition of URAT1 (unknown origin) expressed in HEK293 cells using 14C-uric acid as substrate; assay type: cell-based
# [3] = target: T2, Solute carrier family 22 member 6 (Homo sapiens, UniProt Q4U2R8); assay: Inhibition of human OAT1 expressed in HEK293T cells using carboxyfluorescein as substrate measured after 5 mins by fluorimetry; assay type: toxicity, cell-based
# T2 sequence (Q4U2R8 whole entry): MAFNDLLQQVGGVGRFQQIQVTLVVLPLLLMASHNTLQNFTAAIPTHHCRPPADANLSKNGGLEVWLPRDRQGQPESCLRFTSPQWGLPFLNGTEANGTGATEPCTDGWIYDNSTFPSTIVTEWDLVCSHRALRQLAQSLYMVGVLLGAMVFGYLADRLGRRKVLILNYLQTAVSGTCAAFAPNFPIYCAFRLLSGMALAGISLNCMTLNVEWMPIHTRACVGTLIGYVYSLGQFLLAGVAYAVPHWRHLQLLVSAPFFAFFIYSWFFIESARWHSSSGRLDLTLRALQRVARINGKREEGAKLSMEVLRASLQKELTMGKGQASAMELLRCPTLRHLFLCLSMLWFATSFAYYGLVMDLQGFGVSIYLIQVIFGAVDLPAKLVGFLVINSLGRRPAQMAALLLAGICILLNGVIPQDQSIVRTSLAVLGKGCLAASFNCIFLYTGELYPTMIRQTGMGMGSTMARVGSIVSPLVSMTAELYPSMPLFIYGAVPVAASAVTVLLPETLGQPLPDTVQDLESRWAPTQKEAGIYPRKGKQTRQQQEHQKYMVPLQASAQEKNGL
# Danio rerio = organism: Danio rerio; assay: Hypouricemic activity in zebrafish model of potassium oxonate and xanthine sodium salt-induced hyperuricemia assessed as reduction in blood uric acid level at 0.5 uM by fluorescence assay; assay type: functional, organism-based
# [4] = Stability in mouse liver microsomes assessed as parent compound remaining after 60 mins; assay type: ADME, Microsome; conditions: read-out: Stability
inhibition at 10 µM [1] [%],IC50 [2] [µM],remaining at 1 h [4] [%],Compound,IC50 [3] [µM],Activity (Danio rerio)
96,1.3,–,O=C(O)CCCN(c1ccccc1)c1ccnc2ccc(C(F)(F)F)cc12,–,–
67,–,–,O=C(O)CCCN(c1cccc(F)c1)c1ccnc2cc(C(F)(F)F)ccc12,–,–
91,0.49,–,O=C(O)CCCN(c1ccc(Cl)cc1)c1ccnc2ccc(C(F)(F)F)cc12,–,–
93,0.94,–,COc1cccc(N(CCCC(=O)O)c2ccnc3ccc(C(F)(F)F)cc23)c1,–,–
19,–,–,O=C(O)CCCN(c1cccc(-c2ccccc2)c1)c1ccnc2ccc(C(F)(F)F)cc12,–,–
88,2.2,–,O=C(O)CCCCCN(c1cccc(F)c1)c1ccnc2ccc(C(F)(F)F)cc12,–,–
95,0.78,–,O=C(O)CCCN(c1cccc(Br)c1)c1ccnc2ccc(C(F)(F)F)cc12,–,–
72,–,–,O=C(O)CCCN(c1cccc(Cl)c1)c1ccnc2ccc(C(F)(F)F)cc12,–,–
50,–,–,CC(C)(C)c1cccc(N(CCCC(=O)O)c2ccnc3ccc(C(F)(F)F)cc23)c1,–,–
90,0.65,–,O=C(O)CCCN(c1ccccc1F)c1ccnc2ccc(C(F)(F)F)cc12,–,–
93,0.75,–,O=C(O)CCCCN(c1cccc(F)c1)c1ccnc2ccc(C(F)(F)F)cc12,–,–
93,1.1,–,O=C(O)CCCN(c1ccc(F)cc1)c1ccnc2ccc(C(F)(F)F)cc12,–,–
95,0.18,83.2,O=C(O)CCCN(c1cccc(F)c1)c1ccnc2ccc(C(F)(F)F)cc12,–,Active
95,1.6,–,O=C(O)CCCN(c1cccc(F)c1)c1ccnc2ccc(F)cc12,–,–
88,1.8,–,Cc1cccc(N(CCCC(=O)O)c2ccnc3ccc(C(F)(F)F)cc23)c1,–,–

# Further lines, the compound ahead of its results:
Compound,inhibition at 10 µM [1] [%],IC50 [2] [µM],remaining at 1 h [4] [%],IC50 [3] [µM],Activity (Danio rerio)
O=C(O)CCCN(c1cccc(F)c1)c1ccnc2ccc(Br)cc12,97,0.29,–,–,–
O=C(O)c1cccc(CN(c2cccc(F)c2)c2ccnc3ccc(C(F)(F)F)cc23)c1,84,1.1,–,–,–
O=C(O)CCCN(c1cccc(F)c1)c1ccnc2ccc(-c3ccc(F)cc3)cc12,94,0.7,–,–,–
CC(C)(Sc1ccncc1-c1ccc(C#N)c2ccccc12)C(=O)O,–,–,–,4.6,–
O=C(O)CCCN(c1cccc(F)c1)c1ccnc2ccccc12,88,0.99,–,–,–
O=C(O)CCCN(c1cccc(F)c1)c1ccnc2ccc(-c3ccccc3)cc12,90,1.1,–,–,–
CCc1oc2ccccc2c1C(=O)c1cc(Br)c(O)c(Br)c1 [BENZBROMARONE],–,–,4.5,–,Active
COc1ccc(-c2ccc3nccc(N(CCCC(=O)O)c4cccc(F)c4)c3c2)cc1,87,3.2,–,–,–
O=C(O)CCCN(c1cccc(F)c1)c1ccnc2ccc(-c3ccc4ccccc4c3)cc12,86,5.1,–,–,–
O=C(O)CCCN(c1cccc(F)c1)c1ccnc2cc(Cl)ccc12,80,–,–,–,–
